Laboratory results from patent US20180207249A1, “METHOD AND VACCINE COMPRISING COPOLYMER 1 FOR TREATMENT OF PSYCHIATRIC DISORDERS” (YEDA RESEARCH AND DEVELOPMENT CO. LTD., priority 2003, published 2018).
Counter-ions that a name gives are not always drawn.

Experiments:
[1] = system: C57BL/6J mice injected with MK-801 or AMPH; assay: Prepulse inhibition (PPI) of the acoustic startle response after psychotomimetic drug; type: in vivo, mouse; settings: vehicle (PBS/CFA)-immunized C57BL/6J mice; MK-801 0.1 mg/kg i.p. or AMPH 2.5 mg/kg i.p.
Procedure: (§1) (iii) Immunization. Each animal was injected with a total of 100 μg of Cop-1 emulsified in an equal volume of complete Freund's adjuvant (CPA) containing 5 mg/ml of Mycobacteria H37 RA (Difco). The emulsion, in a total volume of 0.1 mL, was injected into the flank 1 week before the mouse was first injected with a psychotomimetic drug. Control mice were injected with an equal volume of phosphate-buffered saline (PBS) emulsified in CFA.
(vi) Drug solutions. Fresh solutions of dizocilpine maleate (MK-801; Sigma-Aidrich) were prepared in physiological saline (0.9% NaCl in sterile distilled water) for each batch of mice. […]
(viii) Prepulse inhibition (PPT). […] Acoustic PPI was measured by prepuise plus pulse trials consisting of a 2-ms prepuise, 100 ms delay, and then a 40-ms, 120-dB startle pulse. […]
PPI was calculated as a percentage score for each acoustic prepulse trial type: % PPI=100. {[(startle response for prepuise+pulse)/(startle response for pulse-alone)]×100}. The magnitude of the acoustic startle response was calculated as the average response to all of the pulse-alone trials, excluding the first and last blocks of five pulse-alone trials each. […]
(xi) Acoustic startle response (ASR). […] The ASR and pre-pulse inhibition were measured using two ventilated startle chambers (SR-LAB system, San Diego Instruments, San Diego, Calif.). […] These readings (signals) were digitized and stored in a computer. […]

[2] = system: C57BL/6J mice injected with MK-801 or AMPH; assay: Morris water maze (MWM) spatial learning/memory task after psychotomimetic drug; type: in vivo, mouse; settings: C57BL/6J mice; MK-801 0.1 mg/kg i.p. or AMPH 2.5 mg/kg i.p.; relative to naive normal mice
Procedure: as §1
(vi) Drug solutions. Fresh solutions of dizocilpine maleate (MK-801; Sigma-Aidrich) were prepared in physiological saline (0.9% NaCl in sterile distilled water) for each batch of mice. Physiological saline was also used as a vehicle for D-amphetamine sulfate (AMPH: Sigma). MK-801. (0.1 mg/kg) or AMPH (2.5 mg/kg) or sahne was injected i.p., in a total volume of 5 ml per kg of body weight. Mice were injected with MK-801, AMPH, or vehicle 15 min before being subjected to behavioral tests.
(vii) Morris water maze (MWM) behavioral test. Spatial learning/memory was assessed by performance on a hippocampal-dependent visuospatial learning task in the MWM. Mice were given four trials per day, for four consecutive days, to find a hidden platform located 1.5 cm below the water surface in a pool 1.4 m in diameter. Within the testing room only distal visuo-spatial cues were available to the mice for location of the submerged platform. The escape latency, i.e., the time required by the mouse to find and climb onto the platform, was recorded for up to 60 s. Each mouse was allowed to remain on the platform for 30 s, and was then moved from the maze to its home cage. […] The inter-trial interval was 30 s. On day 5, the platform was removed from the pool, and each mouse was tested by a probe trial for 60 s. On days 6-7 the platform was placed at the opposite, location, and the mouse was retrained in four sessions. Data were recorded by using an EthoVision automated tracking system (Noldus Information Technology, Wageningen, The Netherlands). […]

[3] = system: Cop-1-reactive T cells; assay: ELISA of BDNF secreted by Cop-1-reactive T cells; type: cell-based, Lewis rats; settings: 48 h stimulation with antigen; for BDNF secreted by Cop-1-reactive T cells (mean): mean of three independent experiments, no antigen 400
Procedure: (iv) T-cell lines. Ten days after Cop-1 immunization, T-cell lines were generated from draining lymph node cells obtained from Lewis rats immunized with Cop-1 emulsified in CFA. The lymph nodes were surgically removed, dissociated, washed, and then activated with the antigen (10 μg/ml) in stimulation medium as previously reported (Kipnis et al., 2000). The T-cells lines were expanded by repeated stimulation and propagation.
(v) Enzyme-linked immunosorbent assay. T cell-reactive Cop-1 cells were grown for 1 week in a propagation medium, then washed with PBS and re-suspended in stimulation medium. The cultured T cells (0.5×10^6 cells/mL) were then incubated, in the presence of irradiated thymocytes (10^7 cells/mL), with concanavalin A (Con A; 1.25 μg/mL), myelin basic protein (MRP; 10 μg/ml), Cop-1 (10 μg/mL), ovalbumin (OVA; 10 μg/mL), or no antigen, in stimulation medium. After 48 h the cells were centrifaged and their supernatants were collected and sampled. Concentrations of brain-derived neurotrophic factor (BDNF) in the samples were determined with a sensitive sandwich ELISA. In brief 96-well flat-bottomed plates were coated with a chicken anti-human BDNF antibody (Promega, Madison, Wis.) in 0.025 M NaHCO3 and 0.025 M Na2CO3 (pH 8.2). Recombinant human BDNF (used as a standard; Research Diagnostics, Flanders, N.J.) was used in serial dilutions in blocking solution containing 3% bovine serum albumin, 0.05% polyoxyethylene-sorbitan monolaurate (Tween-20), and 1% fetal calf serum in PBS (pH 8.2). Bound BDNF was detected by incubating the plates with a mouse anti-human BDNF antibody (Research Diagnostics) and then with peroxidase-conjugated goat anti-mouse IgG (Jackson ImmunoResearch, West Grove, Pa.) in blocking solution. The plates were developed using a 3,3′,5,5′-tetramethylbenzidine liquid substrate system (Sigma-Aldrich). The reaction was stopped by adding 1M H3PO4, and the optical density was determined at 450 nm. Results for each experiment were calculated as the amount of secreted BDNF per 1 mL of sample, after subtraction of background levels of the irradiated thymocytes incubated with the stimulation medium.
Cop-1-reactive T cells were cultured for 48 h with Cop-1, MBP, ovalbumin, or concanavalin A in stimulation medium. T cell supernatants were collected and subjected to sandwich ELISA. […] Values are mean values (pg/ml) +/− SE (from three independent experiments) of the amounts of BDNF secreted by Cop-1-specific T cells in response to stimulation by various antigens.

For `C[C@H](N)Cc1ccccc1` [AMPH, D-amphetamine sulfate], the “Effect of psychotomimetic drug on PPI of the ASR” value [1] was “significantly disrupted PPI” and the “Effect of psychotomimetic drug on MWM spatial learning and memory performance” value [2] was “significantly impaired”.

`C[C@]12N[C@H](Cc3ccccc31)c1ccccc12` [MK-801, (+)dizocilpine maleate] was tested, and the “Effect of psychotomimetic drug on PPI of the ASR” value [1] was “significantly disrupted PPI” and the “Effect of psychotomimetic drug on MWM spatial learning and memory performance” value [2] was “significantly impaired”.

In the case of concanavalin A [Con A], the “BDNF secreted by Cop-1-reactive T cells (mean)” value (“BDNF secreted” for short) [3] is reported as 1100 pg/mL.

B1: myelin basic protein (protein, UniProt P02686 1-304, looked up)
Myelin basic protein: MGNHAGKRELNAEKASTNSETNRGESEKKRNLGELSRTTSEDNEVFGEADANQNNGTSSQDTAVTDSKRTADPKNAWQDAHPADPGSRPHLIRLFSRDAPGREDNTFKDRPSESDELQTIQEDSAATSESLDVMASQKRPSQRHGSKYLATASTMDHARHGFLPRHRDTGILDSIGRFFGGDRGAPKRGSGKDSHHPARTAHYGSLPQKSHGRTQDENPVVHFFKNIVTPRTPPPSQGKGRGLSLSRFSWGAEGQRPGFGYGGRASDYKSAHKGFKGVDAQGTLSKIFKLGGRDSRSGSPMARR
B1 was tested, and the “Secretion of BDNF by Cop-1-reactive T cells compared with unstimulated T cells” value [3] was “significantly increased” and the “BDNF secreted” value [3] was 1500 pg/mL.

B2: ovalbumin (protein, UniProt P01012 2-386, looked up)
Ovalbumin: GSIGAASMEFCFDVFKELKVHHANENIFYCPIAIMSALAMVYLGAKDSTRTQINKVVRFDKLPGFGDSIEAQCGTSVNVHSSLRDILNQITKPNDVYSFSLASRLYAEERYPILPEYLQCVKELYRGGLEPINFQTAADQARELINSWVESQTNGIIRNVLQPSSVDSQTAMVLVNAIVFKGLWEKAFKDEDTQAMPFRVTEQESKPVQMMYQIGLFRVASMASEKMKILELPFASGTMSMLVLLPDEVSGLEQLESIINFEKLTEWTSSNVMEERKIKVYLPRMKMEEKYNLTSVLMAMGITDVFSSSANLSGISSAESLKISQAVHAAHAEINEAGREVVGSAEAGVDAASVSEEFRADHPFLFCIKHIATNAVLFFGRCVSP
In the case of B2, the “BDNF secreted” value [3] is reported as 440 pg/mL.
